Source: patent US20230167101A1, “NOVEL INHIBITORS OF HISTONE […] P300/CBP FOR CANCER THERAPY” (BAYLOR COLLEGE OF MEDICINE, priority 2020, published 2023)
pEC50: −log10 of the molar value. Values joined by “and” are separate entries in the source; they are usually repeats but may differ in a detail not shown here. Equal values may be shown once. “Also recorded” adds a separate entry of the source.

Columns and labels:
Kasumi-1 leukemia cells = assay: Cellular histone acetylation, Western blot; format: cell-based; conditions: Kasumi-1 cells, 12 h, 5 and 10 µM
Method: Kasumi-1 leukemia cells were treated with increasing concentrations of these compounds for 12 h. Histone was extracted and subjected to electrophoresis separation and Western blot staining to determine levels of acetylation at various lysine residues. […] H3K27 seems to be the most sensitive cellular substrate of p300 HAT. […] This might be due to different mode of inhibition or cell permeability for the two compounds.
About 10^6 Kasumi-1 cells per well were incubated with compound 11 at 0, 5 and 10 µM for 12 hours. Histone proteins were extracted using EpiQuik total histone extraction kit (Epigentek), according to the manufacturer’s protocol. Equal amounts of histones (2 µg) were separated on SDS-PAGE and transferred to PVDF membranes. The blots were probed with primary antibodies against H3K9Ac, H3K18Ac, H3K27Ac and H3 (Cell Signaling), followed by anti-rabbit IgG (Thermo Scientific) secondary antibodies.

Kasumi-1 = assay: Cell growth inhibition, Kasumi-1 (XTT); format: cell-based; conditions: Kasumi-1, 5 days; read-out: EC50, antiproliferative activity
Method: (§1) The anti-proliferation assays for non-breast cancer cells were done using a previously developed assay. In brief, for Kasumi-1 cells, […] were added into 96-well plates and cultured with increasing concentrations of a compound in RPMI-1640 medium supplemented with 20% fetal bovine serum and penicillin (100 U/mL) and streptomycin (100 µg/mL) at 37° C. in a 5% CO2 atmosphere with 100% humidity. For solid tumor cells, 10^5 cells per well were added into 96-well plates and cultured in Dulbecco’s Modified Eagle’s Medium (DMEM) supplemented with 10% fetal bovine serum and penicillin (100 U/mL) and streptomycin (100 µg/mL) overnight. Upon addition of increasing concentrations of a compound, cells were incubated for 5 days. Cell viability was assessed by using an XTT assay kit (Roche) for leukemia cells or an MTT assay (Sigma) for attachment cells. For the breast cancer MCF-7 cells, culture and inhibition assays were performed according to our previous methods in Ref. 25 and 26. Compound EC50 values were calculated from dose response curves using Prism 5.0.

[1] = system: ER+ breast cancer MCF-7 cells; assay: RNA sequencing / gene set enrichment analysis (GSEA); format: cell-based, human; conditions: MCF-7, 6 µM, 48 h, with estradiol 10 nM
Method: RNA sequencing was used to investigate how treatment with p300 HAT inhibitor 12 affects gene expression in ER^+ breast cancer MCF-7 cells. […] RNA sequencing data were mapped onto the human genome and gene expression profiles were determined and normalized. […] Gene set enrichment analysis (GSEA)(31) was used to analyze significant gene expression changes between these three groups of MCF-7 cells.
Upon starvation (culturing in phenol red-free DMEM medium with 10% charcoal treated FBS to remove hydrophobic hormones such as estrogens) for 7 days, MCF-7 cells were treated with the p300 inhibitor (6 µM) or DMSO control, in the presence or absence of (10 nM) estradiol (E2) for 48 hours. Total RNA was extracted using RNeasy Plus Mini Kit (Qiagen), according to the manufacturer’s instruction.
The RNA integrity for each sample was assessed with a RNA 6000 Nano chip on a 2100 Bioanalyzer (Agilent; Santa Clara, CA). The average RNA integrity score for the sample set was 6.48. Sequencing libraries were prepared using the TruSeq Stranded Total RNA Library Prep Kit (Illumina, Inc; San Diego, CA). Concisely, ribosomal RNA (rRNA) was depleted from total RNA where the remaining (ribo-depleted RNA) was purified, fragmented for 7.5 minutes, and primed for cDNA synthesis. […] The concentration of each library was determined by quantitative PCR (qPCR) by the KAPA Library Quantification Kit for Next Generation Sequencing (KAPA Biosystems; Woburn, MA).
Libraries were normalized to 50 nmol/L in 10 mM Tris-Cl, pH8.5 with 0.1% Tween 20 then pooled evenly. […] Sequencing-by-synthesis (SBS) was performed on a HiSeq 2500 utilizing v2 chemistry with paired-end 101 bp reads and a 6 bp index read culminating in an average output of 20 million paired-end reads (or 40 million total reads) per sample. Sequence read data were processed and converted to FASTQ format by Illumina BaseSpace analysis software (v2.0.13).
RNAseq data files were trimmed using Trim Galore!. […] Gene expression was assessed and fragments per kilobase of transcript per million (FPKM) values were determined using Stringtie. […]

MCF-7 = assay: Cell growth inhibition, MCF-7; format: cell-based; conditions: read-out: EC50, antiproliferative activity
Method: as §1

pEC50 (MCF-7): 5.55 and ~5.52
SMILES: CC(C)(C)c1ccc(-c2cc(CNCC3CCNCC3)sc2-c2ccc(C(C)(C)C)cc2)cc1 [Compound 12]
cellular acetylation of histone H3K9, H3K18 and H3K27 (Kasumi-1 leukemia cells): significantly inhibit; also recorded: inhibited
pEC50 (Kasumi-1): 5.59
normalized enrichment score (NES), genes suppressed by p300 knockdown (GSE31873) ([1]; FIG. 7A): -3.32
NES, gene set upregulated by estradiol ([1]; FIG. 7B): -9.19
NES, genes suppressed by estradiol ([1]; FIG. 7C): 7.41
